Results from patent US10570117B2, “Phenylimidazole compound” (Otsuka Pharmaceutical Factory, Inc., priority 2015, dated 2020).
In brackets after ≈: the same amount, converted by molar mass. Where two headings read alike, the source gives them in different places.

Legend:
[1] = Solubility in gastric juice or intestinal juice model fluid (precipitation method using DMSO); format: physicochemical; settings: room temperature
Procedure: Solubility in Gastric Juice or Intestinal Juice Model Fluid
Measurement was performed by a precipitation method using DMSO. Specifically, each of the dimethyl sulfoxide (DMSO) solutions of the compounds was individually added to 1st fluid for Disintegration Test of Japanese Pharmacopoeia (pH: 1.2) or 2nd fluid for Disintegration Test of Japanese Pharmacopoeia (pH: 6.8), and the mixtures were stirred by shaking at room temperature for 24 hours. Subsequently, insoluble substances in each mixture were removed by filtration, and the UV absorption of each filtrate was measured. The obtained values were individually applied to the calibration curves of the compounds prepared in advance to calculate the concentrations of the compounds dissolved (μg/mL).

[2] = pH 1.2, simulated gastric fluid, kinetic from dmso stock, 1st fluid for Disintegration Test of Japanese Pharmacopoeia (pH: 1.2), read-out: Solubility (μg/mL) 1st fluid
[3] = pH 6.8, kinetic from dmso stock, 2nd fluid for Disintegration Test of Japanese Pharmacopoeia (pH: 6.8), read-out: Solubility (μg/mL) 2nd fluid

Row | SMILES | melting point | solubility at 24 h [1, 2] [µg/mL] | solubility at 24 h [1, 3] [µg/mL]
1 | COc1cc(-c2c[nH]c(C3CCCCCC3)n2)cc(OC)c1OCc1ccc(C(F)(F)F)cn1 [Example 74] | 177 to 179 °C | 53.6 (≈ 113 µM) | 1.8 (≈ 3.79 µM)
2 | COc1cc(OCc2ccc(Br)cc2F)ccc1-c1c[nH]c(C2CC2)n1 [Example 83] | 157 to 160 °C | 27.8 (≈ 66.6 µM) | 2.9 (≈ 6.95 µM)
3 | COc1cc(OCc2ccc(Br)cc2F)ccc1-c1c[nH]c(-c2ccncc2)n1 [Example 98] | 226 to 230 °C | 37.1 (≈ 81.7 µM) | 1.3 (≈ 2.86 µM)
4 | COc1cc(OCc2ncc(C(F)(F)F)cc2F)ccc1-c1cnc(-c2ccc(Cl)nc2)[nH]1 [Example 102] | 164 to 186 °C | 92.5 (≈ 193 µM) | 8.9 (≈ 18.6 µM)
5 | COc1cc(OCc2ccc(C(F)(F)F)nc2)ccc1-c1[nH]c(C2CCC(F)(F)C2)nc1Cl (stereo not drawn) [Example 180] | 172 to 174 °C | 89.1 (≈ 183 µM) | 0.4 (≈ 0.82 µM)
6 | COc1cc(O[C@@H](C)c2ccc(C(F)(F)F)nc2)ccc1-c1[nH]c(-c2ccc(F)nc2)nc1Cl [Example 291] | 74 to 97 °C | 9.9 (≈ 20.1 µM) | 3.5 (≈ 7.1 µM)
7 | COc1cc(OCn2cccn2)ccc1-c1[nH]c(C2CCC(F)(F)CC2)nc1Cl [Example 196] | 182 to 184 °C | > 85 | < 7.5
8 | COc1cc(OCc2ccc(C(F)(F)F)cn2)ccc1-c1c(C)nc(-c2ccc(F)nc2)n1C [Example 159] | 136 to 138 °C | > 94 | 4 (≈ 8.47 µM)
9 | COc1cc(OCc2ccc(C(F)(F)F)cn2)ccc1-c1c[nH]c(-c2ccc(N3CCCC3)nc2)n1 [Example 58] | 227 to 231 °C (dec.) | 94.4 (≈ 191 µM) | 16.5 (≈ 33.3 µM)
10 | COc1cc(OCc2cc(C(F)(F)F)ccn2)ccc1-c1cnc(-c2ccc(F)nc2)[nH]1 [Example 114] | 183 to 186 °C | 11.3 (≈ 25.4 µM) | 2.7 (≈ 6.08 µM)
11 | COc1cc(OCc2ccc(C(F)(F)F)nc2)ccc1-c1nc(-c2ccc(Cl)nc2)n(C)c1Br [Example 298] | 177 to 182 °C | 108 (≈ 196 µM) | 1.6 (≈ 2.89 µM)
12 | COc1cc(OCn2cccn2)ccc1-c1c[nH]c(-c2ccc(F)nc2)n1 [Example 120] | 172 to 175 °C | > 73 | 4 (≈ 10.9 µM)
13 | COc1cc(-c2cnc(-c3ccc(F)nc3)[nH]2)ccc1OCc1ccc(C(F)(F)F)nc1 [Example 116] | 144 to 146 °C | 24.1 (≈ 54.2 µM) | < 1.6
14 | COc1cc(OCc2ncc(F)cc2F)ccc1-c1[nH]c(-c2ccc(Cl)nc2)nc1Br [Example 246] | 190 to 193 °C | 15.6 (≈ 30.7 µM) | 5 (≈ 9.85 µM)
15 | COc1cc(OCc2ccc(C(F)(F)F)nc2)ccc1-c1c(Cl)nc(-c2ccc(F)nc2)n1C [Example 311] | 138 to 140 °C | 5.6 (≈ 11.4 µM) | < 0.4
16 | COc1cc(OC(C)c2ncc(C(F)(F)F)cc2F)ccc1-c1[nH]c(-c2ccc(F)nc2)nc1Cl (stereo not drawn) [Example 289] | 155 to 159 °C | 10.8 (≈ 21.1 µM) | 2.2 (≈ 4.31 µM)
17 | COc1cc(-c2c[nH]c(-c3ccc(C(F)(F)F)nc3)n2)ccc1OCc1ccc(C(F)(F)F)cn1 [Example 97] | 201 to 203 °C | 15.2 (≈ 30.7 µM) | 2.2 (≈ 4.45 µM)
18 | COc1cc(OCc2ncccc2C#N)ccc1-c1cnc(C2CCC(F)(F)CC2)[nH]1 [Example 7] | 69 to 89 °C | 84 (≈ 198 µM) | 40.2 (≈ 94.7 µM)
19 | COc1cc(OCc2ncc(F)cc2F)ccc1-c1cnc(-c2ccc(F)nc2)[nH]1 [Example 140] | 188 to 191 °C | 7.8 (≈ 18.9 µM) | 4.8 (≈ 11.6 µM)
20 | COc1cc(OCc2ccc(C(F)(F)F)nc2)ccc1-c1c[nH]c(-c2ccc(F)cn2)n1 [Example 26] | 176 to 178 °C | 8.7 (≈ 19.6 µM) | 1.3 (≈ 2.93 µM)
